Test results taken from ChEMBL document CHEMBL3045232, “Inhibition of photophosphorylation and electron transport chain in thylakoids by lasiodiplodin, a natural product from Botryosphaeria rhodina” (J Agric Food Chem, 2007).
The source made the active and inactive calls. The rule behind the calls is not given here.

Columns and labels:
[1] = test system: Spinacia oleracea; assay: Inhibition of ATP sythesis in freshly lysed Spinacia oleracea (spinach) chloroplasts; format: functional, organism-based
[2] = test system: Spinacia oleracea; assay: Inhibition of thylakoid electron transport chain in intact chloroplasts of Spinacia oleracea (spinach) leaves assessed as inhibition of uncoupled PS2 electron transport from water to SiM at 200 uM relative to control; settings: values are per cent of control
[3] = target: T1, Chloroplast coupling factor 1 (Spinacia oleracea) (UniProt P00825+P06453+P69447+P06451+P05435+P31853+P06450+P11402+P00833); assay: Inhibition of H+ ATPase activity of coupling factor 1 in chloroplasts of Spinacia oleracea (spinach) leaves at 150 uM; format: protein-complex assay
[4] = test system: Spinacia oleracea; assay: Inhibition of thylakoid electron transport chain in intact chloroplasts of Spinacia oleracea (spinach) leaves assessed as inhibition of uncoupled PS2 electron transport from water to SiM at 300 uM relative to control; settings: values are per cent of control
[5] = target: T1, Chloroplast coupling factor 1 (Spinacia oleracea); assay: Inhibition of Ca2+ ATPase activity of coupling factor 1 in chloroplasts of Spinacia oleracea (spinach) leaves at 25 uM; format: protein-complex assay
[6] = target: T1, Chloroplast coupling factor 1 (Spinacia oleracea); assay: Inhibition of Mg2+ ATPase activity of coupling factor 1 in chloroplasts of Spinacia oleracea (spinach) leaves at 50 uM; format: protein-complex assay; settings: values are per cent of control
[7] = test system: Spinacia oleracea; assay: Inhibition of thylakoid electron transport chain in intact chloroplasts of Spinacia oleracea (spinach) leaves assessed as inhibition of uncoupled PS2 electron transport from […] to DCPIP at 300 uM relative to control; settings: values are per cent of control
[8] = target: T1, Chloroplast coupling factor 1 (Spinacia oleracea); assay: Inhibition of H+ ATPase activity of coupling factor 1 in chloroplasts of Spinacia oleracea (spinach) leaves at 50 uM; format: protein-complex assay
[9] = target: T1, Chloroplast coupling factor 1 (Spinacia oleracea); assay: Inhibition of Mg2+ ATPase activity of coupling factor 1 in chloroplasts of Spinacia oleracea (spinach) leaves at 150 uM; format: protein-complex assay; settings: values are per cent of control
[10] = test system: Spinacia oleracea; assay: In vitro inhibition of photophosphorylation in intact chloroplasts of Spinacia oleracea (spinach) leaves assessed as phosphorylating nonyclic electron transport from water to methylviologen; format: functional
[11] = test system: Spinacia oleracea; assay: In vitro inhibition of photophosphorylation in intact chloroplasts of Spinacia oleracea (spinach) leaves assessed as inhibition of uncoupled electron transport from water to methylviologen at 300 uM; format: functional
[12] = target: T1, Chloroplast coupling factor 1 (Spinacia oleracea); assay: Inhibition of H+ ATPase activity of coupling factor 1 in chloroplasts of Spinacia oleracea (spinach) leaves at 200 uM; format: protein-complex assay
[13] = test system: Spinacia oleracea; assay: Induction of Chlorophyll a fluorescence induction curve in freshly lysed chloroplasts of Spinacia oleracea (spinach) at 300 uM; format: functional, organism-based
[14] = target: T1, Chloroplast coupling factor 1 (Spinacia oleracea); assay: Inhibition of Mg2+ ATPase activity of coupling factor 1 in chloroplasts of Spinacia oleracea leaves at 25 uM; format: protein-complex assay; settings: values are per cent of control
[15] = target: T1, Chloroplast coupling factor 1 (Spinacia oleracea); assay: Inhibition of Ca2+ ATPase activity of coupling factor 1 in chloroplasts of Spinacia oleracea (spinach) leaves at 150 uM; format: protein-complex assay
[16] = test system: Spinacia oleracea; assay: Induction of Chlorophyll a fluorescence induction curve in freshly lysed chloroplasts of Spinacia oleracea (spinach) at 10 uM; format: functional, organism-based
[17] = test system: Spinacia oleracea; assay: Inhibition of thylakoid electron transport chain in intact chloroplasts of Spinacia oleracea (spinach) leaves assessed as inhibition of uncoupled PS2 electron transport from […] to DCPIP at 100 uM relative to control; settings: values are per cent of control
[18] = test system: Spinacia oleracea; assay: Inhibition of thylakoid electron transport chain in intact chloroplasts of Spinacia oleracea (spinach) leaves assessed as inhibition of uncoupled PS2 electron transport from water to SiM at 100 uM relative to control; settings: values are per cent of control
[19] = test system: Spinacia oleracea; assay: Inhibition of ATP sythesis in freshly lysed Spinacia oleracea (spinach) chloroplasts at 150 uM; format: functional, organism-based
[20] = test system: Spinacia oleracea; assay: In vitro inhibition of photophosphorylation in intact chloroplasts of Spinacia oleracea (spinach) leaves assessed as basal electron transport from water to methylviologen; format: functional
[21] = test system: Spinacia oleracea; assay: Inhibition of thylakoid electron transport chain in intact chloroplasts of Spinacia oleracea (spinach) leaves assessed as inhibition of uncoupled PS2 electron transport from water to SiM at 400 uM relative to control; settings: values are per cent of control
[22] = target: T1, Chloroplast coupling factor 1 (Spinacia oleracea); assay: Inhibition of Ca2+ ATPase activity of coupling factor 1 in chloroplasts of Spinacia oleracea (spinach) leaves at 50 uM; format: protein-complex assay
[23] = test system: Spinacia oleracea; assay: Inhibition of thylakoid electron transport chain in intact chloroplasts of Spinacia oleracea (spinach) leaves assessed as inhibition of uncoupled PS2 electron transport from […] to DCPIP at 200 uM relative to control; settings: values are per cent of control

Q: For `O=c1[nH]cnc2c1ncn2[C@@H]1O[C@H](CO)[C@@H](O)[C@H]1O`, which I50 [1] is on record?
A: Its I50 is “inactive”.

Q: How did the I50 [1] turn out when `CC(C)[C@@H](C)/C=C/[C@@H](C)[C@H]1CC[C@H]2C3=CC=C4C[C@@H](O)CC[C@]4(C)[C@H]3CC[C@]12C` was run?
A: The I50 was “inactive”.

Q: `COc1cc(O)cc2c1C(=O)O[C@@H](C)CCCCCCC2` [LASIODIPLODIN] was tested. Which residual activity [2] did it give?
A: The residual activity was 70%.

Q: And the inhibition [3]?
A: Its inhibition is 98.5%.

Q: What about the residual activity [4] of the same compound?
A: The residual activity was 40%.

Q: What about the inhibition [5] of the same compound?
A: Its inhibition is 95.6%.

Q: And the residual activity [6]?
A: Its residual activity is 54.5%.

Q: What about the residual activity [7] of the same compound?
A: Its residual activity is 27%.

Q: What about the inhibition [8] of the same compound?
A: The inhibition was 95%.

Q: What about the residual activity [9] of the same compound?
A: Its residual activity is 49.4%.

Q: What about the inhibition [10] of the same compound?
A: The inhibition was “Active”.

Q: What about the inhibition [11] of the same compound?
A: The inhibition was 100%.

Q: And the inhibition [12]?
A: The inhibition was 97.7%.

Q: And the Activity [13]?
A: The Activity was “Active”.

Q: And the residual activity [14]?
A: Its residual activity is 62.3%.

Q: And the inhibition [15]?
A: The inhibition was 84.1%.

Q: And the Activity [16]?
A: Its Activity is “Active”.

Q: And the residual activity [17]?
A: The residual activity was 87%.

Q: What about the residual activity [18] of the same compound?
A: The residual activity was 80%.

Q: What about the inhibition [19] of the same compound?
A: The inhibition was 100%.

Q: What about the inhibition [20] of the same compound?
A: The inhibition was “Active”.

Q: What about the residual activity [21] of the same compound?
A: The residual activity was 0%.

Q: And the IC50 ([1]; read-out: I50)?
A: The IC50 was 35.6 µM.

Q: What about the inhibition [22] of the same compound?
A: The inhibition was 87.5%.

Q: And the residual activity [23]?
A: Its residual activity is 75%.

Q: How did the I50 [1] turn out when `OCCc1ccc(O)cc1` was run?
A: Its I50 is “inactive”.
